# Results: patent US20240000872A1, “NOVEL BACTERIOPHAGE THAT LYSES ACINETOBACTER GENUS BACTERIA HAVING RESISTANCE TO ANTIBIOTICS” (priority 2020, published 2024)
# System: Acinetobacter baumannii strains
# Assay: Antibiotic susceptibility test (CLSI disk diffusion test method, read per CLSI 2016); note: key: ‘S’ means susceptible; ‘I’ means intermediate; ‘R’ means resistant
# Assay type: cell-based
smiles,measurement,setting,value
"CO/N=C(\C(=O)N[C@@H]1C(=O)N2C(C(=O)O)=C(COC(C)=O)CS[C@H]12)c1csc(N)n1 [Cefotaxime, cefotaxime]",antibiotic susceptibility class,host strain YMC14/01/C29,R
same,antibiotic susceptibility class,host strain YMC14/01/IP122,R
same,antibiotic susceptibility class,host strain YMC14/01/L8,R
same,antibiotic susceptibility class,host strain YMC14/01/P31,R
same,antibiotic susceptibility class,host strain YMC14/01/P117,R
same,antibiotic susceptibility class,host strain YMC14/01/P224,R
same,antibiotic susceptibility class,host strain YMC14/01/P727,R
same,antibiotic susceptibility class,host strain YMC14/01/P728,R
same,antibiotic susceptibility class,host strain YMC14/01/R130,R
same,antibiotic susceptibility class,host strain YMC14/01/R160,R
same,antibiotic susceptibility class,host strain YMC14/01/R198,R
same,antibiotic susceptibility class,host strain YMC14/01/R257,R
same,antibiotic susceptibility class,host strain YMC14/01/R270,R
same,antibiotic susceptibility class,host strain YMC14/01/R324,R
same,antibiotic susceptibility class,host strain YMC14/01/R443,R
same,antibiotic susceptibility class,host strain YMC14/01/R451,R
same,antibiotic susceptibility class,host strain YMC14/01/R560,R
same,antibiotic susceptibility class,host strain YMC14/01/R617,R
same,antibiotic susceptibility class,host strain YMC14/01/R671,R
same,antibiotic susceptibility class,host strain YMC14/01/R732,R
same,antibiotic susceptibility class,host strain YMC14/01/R767,R
same,antibiotic susceptibility class,host strain YMC14/01/R904,R
same,antibiotic susceptibility class,host strain YMC14/01/R905,R
same,antibiotic susceptibility class,host strain YMC14/01/R921,R
same,antibiotic susceptibility class,host strain YMC14/01/R941,R
same,antibiotic susceptibility class,host strain YMC14/01/R958,R
same,antibiotic susceptibility class,host strain YMC14/01/R1006,R
same,antibiotic susceptibility class,host strain YMC14/01/R1199,R
same,antibiotic susceptibility class,host strain YMC14/01/R1659,R
same,antibiotic susceptibility class,host strain YMC14/01/R1722,R
same,antibiotic susceptibility class,host strain YMC14/01/R1752,R
same,antibiotic susceptibility class,host strain YMC14/01/R2429,R
same,antibiotic susceptibility class,host strain YMC14/01/R2572,R
same,antibiotic susceptibility class,host strain YMC14/01/R2855,R
same,antibiotic susceptibility class,host strain YMC14/01/R2945,R
same,antibiotic susceptibility class,host strain YMC14/01/R3007,R
same,antibiotic susceptibility class,host strain YMC14/01/R3129,R
same,antibiotic susceptibility class,host strain YMC14/01/R3317,R
same,antibiotic susceptibility class,host strain YMC14/01/R3474,R
same,antibiotic susceptibility class,host strain YMC14/01/R3574,R
same,antibiotic susceptibility class,host strain YMC14/01/U313,R
same,antibiotic susceptibility class,host strain YMC14/01/U318,R
same,antibiotic susceptibility class,host strain YMC14/02/L18,R
same,antibiotic susceptibility class,host strain YMC14/02/P47,R
same,antibiotic susceptibility class,host strain YMC14/02/R1860,R
same,antibiotic susceptibility class,host strain YMC14/02/R2417,R
same,antibiotic susceptibility class,host strain YMC14/02/R2599,R
same,antibiotic susceptibility class,host strain YMC14/02/R2668,R
same,antibiotic susceptibility class,host strain YMC14/02/R2758,R
same,antibiotic susceptibility class,host strain YMC14/02/R2781,R
same,antibiotic susceptibility class,host strain YMC14/02/R3106,R
same,antibiotic susceptibility class,host strain YMC14/02/R3419,R
same,antibiotic susceptibility class,host strain YMC14/02/U1607,R
same,antibiotic susceptibility class,host strain YMC14/03/L9,R
same,antibiotic susceptibility class,host strain YMC14/03/P471,R
same,antibiotic susceptibility class,host strain YMC14/03/R122,R
same,antibiotic susceptibility class,host strain YMC14/03/R217,R
same,antibiotic susceptibility class,host strain YMC14/03/R380,R
same,antibiotic susceptibility class,host strain YMC14/03/R618,R
same,antibiotic susceptibility class,host strain YMC14/03/R2144,R
same,antibiotic susceptibility class,host strain YMC14/03/U4616,R
same,antibiotic susceptibility class,host strain YMC14/04/R1078,R
same,antibiotic susceptibility class,host strain YMC14/04/R1080,R
same,antibiotic susceptibility S/I/R,host strain YMC14/06/R2359,R
same,susceptibility category (S/I/R),host strain YMC14/06/R2359,R
same,antibiotic susceptibility S/I/R,host strain YMC14/08/R1169,R
same,susceptibility category (S/I/R),host strain YMC14/08/R1169,R
same,antibiotic susceptibility S/I/R,host strain YMC14/08/T90,R
same,susceptibility category (S/I/R),host strain YMC14/08/T90,R
same,antibiotic susceptibility S/I/R,host strain YMC15/02/R436,R
same,susceptibility category (S/I/R),host strain YMC15/02/R436,R
same,antibiotic susceptibility S/I/R,host strain YMC15/02/T28,R
same,susceptibility category (S/I/R),host strain YMC15/02/T28,R
same,antibiotic susceptibility S/I/R,host strain YMC15/03/R1604,R
same,susceptibility category (S/I/R),host strain YMC15/03/R1604,R
same,antibiotic susceptibility S/I/R,host strain YMC15/09/R1869,R
same,susceptibility category (S/I/R),host strain YMC15/09/R1869,R
same,antibiotic susceptibility S/I/R,host strain YMC16/01/P11,R
same,susceptibility category (S/I/R),host strain YMC16/01/P11,R
same,antibiotic susceptibility S/I/R,host strain YMC16/01/R123,R
same,susceptibility category (S/I/R),host strain YMC16/01/R123,R
same,antibiotic susceptibility S/I/R,host strain YMC16/01/R198,R
same,susceptibility category (S/I/R),host strain YMC16/01/R198,R
same,antibiotic susceptibility S/I/R,host strain YMC16/01/R353,R
same,susceptibility category (S/I/R),host strain YMC16/01/R353,R
same,antibiotic susceptibility S/I/R,host strain YMC16/01/R380,R
same,susceptibility category (S/I/R),host strain YMC16/01/R380,R
same,antibiotic susceptibility S/I/R,host strain YMC16/01/R397,R
same,susceptibility category (S/I/R),host strain YMC16/01/R397,R
same,antibiotic susceptibility S/I/R,host strain YMC16/01/R405,R
same,susceptibility category (S/I/R),host strain YMC16/01/R405,R
same,susceptibility category (S/I/R),host strain YMC16/03/R4461,I
same,antibiotic susceptibility S/I/R,host strain YMC16/05/R2210,R
same,susceptibility category (S/I/R),host strain YMC16/05/R2210,R
same,antibiotic susceptibility S/I/R,host strain YMC16/07/R2512,R
same,susceptibility category (S/I/R),host strain YMC16/07/R2512,R
same,antibiotic susceptibility S/I/R,host strain YMC16/09/R2471,R
same,susceptibility category (S/I/R),host strain YMC16/09/R2471,R
same,antibiotic susceptibility S/I/R,host strain YMC16/10/R2537,R
same,susceptibility category (S/I/R),host strain YMC16/10/R2537,R
same,antibiotic susceptibility S/I/R,host strain YMC16/12/B11422,R
same,susceptibility category (S/I/R),host strain YMC16/12/B11422,R
same,antibiotic susceptibility S/I/R,host strain YMC16/12/B11449,R
same,susceptibility category (S/I/R),host strain YMC16/12/B11449,R
same,antibiotic susceptibility S/I/R,host strain YMC16/12/B13325,R
same,susceptibility category (S/I/R),host strain YMC16/12/B13325,R
same,antibiotic susceptibility S/I/R,host strain YMC16/12/P503,R
same,susceptibility category (S/I/R),host strain YMC16/12/P503,R
same,antibiotic susceptibility S/I/R,host strain YMC16/12/R4637,R
same,susceptibility category (S/I/R),host strain YMC16/12/R4637,R
same,antibiotic susceptibility S/I/R,host strain YMC17/01/B8053,R
same,susceptibility category (S/I/R),host strain YMC17/01/B8053,R
same,antibiotic susceptibility S/I/R,host strain YMC17/01/B10087,R
same,susceptibility category (S/I/R),host strain YMC17/01/B10087,R
same,antibiotic susceptibility S/I/R,host strain YMC17/01/B12075,R
same,susceptibility category (S/I/R),host strain YMC17/01/B12075,R
same,antibiotic susceptibility S/I/R,host strain YMC17/01/B13454,R
same,susceptibility category (S/I/R),host strain YMC17/01/B13454,R
same,antibiotic susceptibility S/I/R,host strain YMC17/01/P518,R
same,susceptibility category (S/I/R),host strain YMC17/01/P518,R
same,antibiotic susceptibility S/I/R,host strain YMC17/01/R2812,R
same,susceptibility category (S/I/R),host strain YMC17/01/R2812,R
same,antibiotic susceptibility S/I/R,host strain YMC17/02/B14,R
same,susceptibility category (S/I/R),host strain YMC17/02/B14,R
same,antibiotic susceptibility S/I/R,host strain YMC17/02/B87,R
same,susceptibility category (S/I/R),host strain YMC17/02/B87,R
same,antibiotic susceptibility S/I/R,host strain YMC17/02/B721,R
same,susceptibility category (S/I/R),host strain YMC17/02/B721,R
same,antibiotic susceptibility S/I/R,host strain YMC17/02/B4039,R
same,susceptibility category (S/I/R),host strain YMC17/02/B4039,R
same,antibiotic susceptibility S/I/R,host strain YMC17/02/B4520,R
same,susceptibility category (S/I/R),host strain YMC17/02/B4520,R
same,antibiotic susceptibility S/I/R,host strain YMC17/02/B4864,S
same,susceptibility category (S/I/R),host strain YMC17/02/B4864,S
same,antibiotic susceptibility S/I/R,host strain YMC17/02/B8414,R
same,susceptibility category (S/I/R),host strain YMC17/02/B8414,R
same,antibiotic susceptibility S/I/R,host strain YMC17/02/P523,R
same,susceptibility category (S/I/R),host strain YMC17/02/P523,R
same,antibiotic susceptibility S/I/R,host strain YMC17/02/R541,R
same,susceptibility category (S/I/R),host strain YMC17/02/R541,R
same,antibiotic susceptibility S/I/R,host strain YMC17/02/R2392,R
same,susceptibility category (S/I/R),host strain YMC17/02/R2392,R
same,antibiotic susceptibility S/I/R,host strain YMC17/03/B4730,R
same,susceptibility category (S/I/R),host strain YMC17/03/B4730,R
same,antibiotic susceptibility S/I/R,host strain YMC17/03/B5000,R
same,susceptibility category (S/I/R),host strain YMC17/03/B5000,R
same,antibiotic susceptibility S/I/R,host strain YMC17/03/P971,R
same,susceptibility category (S/I/R),host strain YMC17/03/P971,R
same,antibiotic susceptibility S/I/R,host strain YMC17/03/R348,R
same,susceptibility category (S/I/R),host strain YMC17/03/R348,R
same,antibiotic susceptibility S/I/R,host strain YMC17/03/R585,R
same,susceptibility category (S/I/R),host strain YMC17/03/R585,R
same,antibiotic susceptibility S/I/R,host strain YMC17/03/R1888,R
same,susceptibility category (S/I/R),host strain YMC17/03/R1888,R
same,antibiotic susceptibility S/I/R,host strain YMC17/03/R3279,R
same,susceptibility category (S/I/R),host strain YMC17/03/R3279,R
same,antibiotic susceptibility S/I/R,host strain YMC17/03/R4077,R
same,susceptibility category (S/I/R),host strain YMC17/03/R4077,R
same,antibiotic susceptibility S/I/R,host strain YMC17/03/R4607,R
same,susceptibility category (S/I/R),host strain YMC17/03/R4607,R
same,antibiotic susceptibility S/I/R,host strain YMC17/04/R488,R
same,susceptibility category (S/I/R),host strain YMC17/04/R488,R
same,antibiotic susceptibility S/I/R,host strain YMC17/04/R640,R
same,susceptibility category (S/I/R),host strain YMC17/04/R640,R
same,antibiotic susceptibility S/I/R,host strain YMC/17/05/R1095,R
same,susceptibility category (S/I/R),host strain YMC/17/05/R1095,R
